The values below come from PMC7405012, “Detection of Chaetomium globosum, Ch. cochliodes and Ch. rectangulare during the Diversity Tracking of Mycotoxin-Producing Chaetomium-like Isolates Obtained in Buildings in Finland” (Toxins, 2020).

The subject of experiment [1] is Outdoor T. atroviride SZMC 1723. Put plainly: Resistance to biocides: conidial germination. The class given is cell-based, Trichoderma atroviride. As to conditions: strain SZMC 1723, outdoor T. atroviride. As for the experimental part:
(§1) The toxicity of biocides and chemicals towards the indoor Chaetomium-like isolates and the reference indoor strains of the genera Aspergillus, Paecilomyces, Penicillium and Trichoderma was assessed in parallel with the six parameters presented in the Supplementary Materials: (1) germ tube assay (Figure S3); (2) estimation of turbidity (Figure S4); (3) visual emission of fluorescence (excitation at 360 nm); (4) visual resporulation of conidia; (5) inhibition of glucose consumption; and (6) resazurin reduction. All assays were performed in malt extract broth (12 g L^−1 malt extract, 7.2 µmol mL^−1 glucose, pH 5.5; Scharlab, Barcelona, Spain) in 96-well microtiter plates as described for the ICP assay.
(§2) The assays measuring inhibition of germination of conidia were done with spore suspensions of 1–2 × 10^6 fungal spores mL−^1. The tests were performed in malt extract broth (Oxoid, Hampshire United Kingdom) 12 g in 1 L, pH 5.5, glucose 7.1 mmol L^−1, and performed on microtiter plates as described by Bencsik et al. for the ICP assay. The germ tube germination is visualized in Figure S3, and the tests estimating turbidity and emission of fluorescence provoked by the germinated and metabolically active conidia and C. globosum ascospores are visualized in Figures S4 and S5. Examples of the tests estimating fluorescence emission, turbidity and re-sporulation of conidia and ascospores are compared in Figure S5. The difference of the endpoints measured with the different assays was between […]. The resazurin reduction assays (Figure S6) were performed as described for the ICP assay, except that the microtiter plates were visually inspected for the change of the blue/violet color of resazurin (indicating inhibition of germination of the exposed conidia) to the […] (indicating metabolic activity and germination of the exposed conidia).
(§3) The formation of germ tubes was inspected by a phase-contrast microscope (Olympus CKX41, Tokyo, Japan; magnification 400×) and an image recording software (Cellsense® standard version 11.0.06, Olympus Soft Imaging Solutions GmbH, Münster, Germany, 2012) after 1 and 2 days of incubation at 28 °C. The EC50 corresponded to the inhibition of 50% (estimated as the concentration between EC0 and EC100) of the conidia compared to the ethanol control (the growth medium containing 1% of ethanol). The tests were run in triplicate and calibrated with triclosan (CAS: 3380-34-5; Sigma Chemical Co., St. Louis, MO, USA) giving a mean SD of ±<20%.

The subject of experiment [2] is Outdoor T. atroviride SZMC 12323. Put plainly: Resistance to biocides: conidial germination. The following applies: strain SZMC 12323, outdoor T. atroviride. The class given is cell-based, Trichoderma atroviride. The protocol:
as §1, §2, §3

In experiment [3] the test system is Ch. rectangulare Mo13. The experiment in a line: Resistance to biocides: ascospore germination. It counts as cell-based. The protocol:
as §1, §2, §3

Experiment [4] has as its system Ch. globosum 3b/AP. Put plainly: Resistance to biocides: ascospore germination. The class given is cell-based, Chaetomium globosum. As to conditions: strain 3b/AP, indoor Ch. globosum. As for the experimental part: as §1, §2, §3
Experiment [5] relates to Ch. globosum RUK10. Put plainly: Resistance to biocides: ascospore germination. The class given is cell-based, Chaetomium globosum. The following applies: strain RUK10, indoor Ch. globosum. The protocol:
as §1, §2, §3

In experiment [6] the test system is Ch. globosum 2c/MT. The experiment in a line: Resistance to biocides: ascospore germination. The class given is cell-based, Chaetomium globosum. As to conditions: strain 2c/MT, indoor Ch. globosum. As for the experimental part:
as §1, §2, §3

For experiment [7], the system named is Ch. globosum MO9. The experiment in a line: Resistance to biocides: ascospore germination. The class given is cell-based, Chaetomium globosum. As to conditions: strain MO9, indoor Ch. globosum. As for the experimental part: as §1, §2, §3
Experiment [8] concerns Ch. globosum MTAV37. The experiment in a line: Resistance to biocides: ascospore germination. The class given is cell-based, Chaetomium globosum. As to conditions: strain MTAV37, indoor Ch. globosum. As for the experimental part: as §1, §2, §3
Experiment [9] relates to Ch. globosum ABCD. The experiment in a line: Resistance to biocides: ascospore germination. It counts as cell-based, Chaetomium globosum. The following applies: strain ABCD, indoor Ch. globosum. As for the experimental part: as §1, §2, §3
For experiment [10], the system named is Ch. globosum C22/LM. The experiment in a line: Resistance to biocides: ascospore germination. It counts as cell-based, Chaetomium globosum. As to conditions: strain C22/LM, indoor Ch. globosum. The protocol: as §1, §2, §3
Experiment [11] concerns Ch. globosum MTAV35. The experiment in a line: Resistance to biocides: ascospore germination. The class given is cell-based, Chaetomium globosum. The following applies: strain MTAV35, indoor Ch. globosum, median of four independent measurements with five methods. As for the experimental part:
as §1, §2, §3

The subject of experiment [12] is Ch. globosum MH 52. The experiment in a line: Resistance to biocides: ascospore germination. As to conditions: strain MH 52, indoor Ch. globosum. It counts as cell-based, Chaetomium globosum. The protocol:
as §1, §2, §3

Experiment [13] has as its system Ch. globosum HAS5. Put plainly: Resistance to biocides: ascospore germination. It counts as cell-based, Chaetomium globosum. The following applies: strain HAS5, indoor Ch. globosum. The protocol: as §1, §2, §3
The subject of experiment [14] is Ch. globosum 2b/26. The experiment in a line: Resistance to biocides: ascospore germination. The class given is cell-based, Chaetomium globosum. The following applies: strain 2b/26, indoor Ch. globosum. As for the experimental part:
as §1, §2, §3

Experiment [15] relates to Outdoor Chaetomium-like strain CH1/tu. The experiment in a line: Resistance to biocides: ascospore germination. It counts as cell-based, Unidentified Chaetomium-like strain. The protocol: as §1
The assays measuring inhibition of germination of conidia were done with spore suspensions of 1–2 × 10^6 fungal spores mL−^1. […] The germ tube germination is visualized in Figure S3, and the tests estimating turbidity and emission of fluorescence provoked by the germinated and metabolically active conidia and C. globosum ascospores are visualized in Figures S4 and S5. Examples of the tests estimating fluorescence emission, turbidity and re-sporulation of conidia and ascospores are compared in Figure S5. The difference of the endpoints measured with the different assays was between 38% and <28.5%. […]

In experiment [16] the test system is resting boar spermatozoa. Put plainly: Motility inhibition of resting boar spermatozoa (BSMIR). The class given is cell-based. As to conditions: resting boar sperm, 24 °C, 2 days. As for the experimental part: Three criteria were assessed: (1) the motility inhibition of resting boar spermatozoa (BSMIR); (2) the change in mitochondrial membrane potential (ΔΨ) observed using the potentiometric dye JC-1; and (3) the plasma membrane integrity (SMIDR) observed using the viability stain calcein-AM + propidium iodide (PI). […] By contrast, the EC50 concentrations in the SMIDR assays, which measured the lethal damages in plasma membrane after incubation for two days, were >50 times higher (Figure 5 and Table 3).
The procedure for the BSMIR assay measuring sublethal toxicity as motility inhibition, i.e., inability to respond to induction of motility in resting sperm cells is described below: The ethanol solutions (0.5–10 μL) were dispensed in 2000 μL of extended boar semen (Figen Ltd., Tuomikylä, Finland, density of 27 × 10^6 sperms mL^−1) incubated at 24 °C, and motility of the sperms was inspected in the phase-contrast microscope (400× magnification) with a heated stage, (Olympus CKX41, Tokyo, Japan; magnification 400×) and an image recording software (Cellsense® standard version 11.0.06, Olympus Soft Imaging Solutions GmbH, Münster, Germany, 2012) as described previously. […] The EC50 was calculated from the equation of the straight line between EC50-40 and EC80-90: Y = −ΔY/ΔX × X + C where Y is the motility closest to 50% of the motility of the solvent control, X is the EC50 concentration and C is a constant between 100% and 60%. All tests were run in triplicates and differences between replicate tests were within one dilution step (2-fold). The sperm assays were calibrated with triclosan and valinomycin.

Setting [17] is: Trichoderma atroviride, read-out: EC50.
[18] abbreviates: Chaetomium globosum, read-out: EC50.
Where [19] appears, read: Chaetomium globosum, MH52, read-out: EC50.

A word on the EC50: it is the concentration needed to bring the measured effect to its halfway point.

Converted amounts (≈) assume the structure as drawn. Read-outs that look alike come from different tables or passages of the source.

With “polyhexamethylene biguanide hydrochloride [PHMB]”, the half-maximal effective concentration (EC50) in experiment [1] is 8 µg/mL; in experiment [2], 8 µg/mL; in experiment [3] (strain Mo13, indoor Ch. rectangulare), 4 µg/mL; in experiment [4], 8 µg/mL; in [5], 4 µg/mL; in experiment [6] it was 8 µg/mL. The EC50 was 4 µg/mL in experiment [7]; 4 µg/mL in experiment [8]; 4 µg/mL in experiment [9]; 8 µg/mL in [10]; 4 µg/mL in experiment [11]; 4 µg/mL in experiment [12]. Moreover, the EC50 in [13] worked out at 8 µg/mL; in experiment [14], 8 µg/mL; in [15] it was 4 µg/mL.

Consider `O=BOB(O)OB(O)OB=O` [Borax, sodium tetraborate], for which the EC50 was 1200 µg/mL in experiment [1] (setting [17]); 1200 µg/mL in experiment [2] (setting [17]); above 5000 µg/mL in [3]; above 5000 µg/mL in [4] (setting [18]); 5000 µg/mL in experiment [5] (setting [18]); above 5000 µg/mL in experiment [6] (setting [18]). In addition, the EC50 was above 5000 µg/mL in experiment [7] (setting [18]); 5000 µg/mL in [8] (setting [18]); 5000 µg/mL in experiment [9] (setting [18]); above 5000 µg/mL in experiment [10] (setting [18]); 5000 µg/mL in [11] (setting [18]); 5000 µg/mL in [12] (setting [19]). Further, the EC50 is above 5000 µg/mL in experiment [13] (setting [18]), above 5000 µg/mL in [14] (setting [18]) and 1200 µg/mL in experiment [15] (read-out: EC50).

On to `NCl` [Chloramine, chloramine], for which the EC50 in experiment [1], in experiment [2], in experiment [4], in experiment [5], in experiment [6] and in [7] was 2500 µg/mL (≈ 48.6 mM) throughout. The EC50 in [10], in experiment [13] and in [14] was 2500 µg/mL (≈ 48.6 mM) throughout.

Take `Oc1cc(Cl)ccc1Oc1ccc(Cl)cc1Cl` [Triclosan, 5-Chloro-2-(2,4-dichlorophenoxy)phenol]: the EC50 in [1] (setting [17]) worked out at 16 µg/mL (≈ 0.0553 mM); in experiment [2] (setting [17]), 30 µg/mL (≈ 0.104 mM); in [4] (setting [18]), 4 µg/mL (≈ 0.0138 mM); in experiment [5] (setting [18]), 2 µg/mL (≈ 0.00691 mM); in experiment [6] (setting [18]) it was 4 µg/mL (≈ 0.0138 mM); in experiment [7] (setting [18]) it was 2 µg/mL (≈ 0.00691 mM). In addition, the EC50 was determined as 4 µg/mL (≈ 0.0138 mM) in [8] (setting [18]); 4 µg/mL (≈ 0.0138 mM) in [9] (setting [18]); 4 µg/mL (≈ 0.0138 mM) in [10] (setting [18]); 2 µg/mL (≈ 0.00691 mM) in [11] (setting [18]); 2 µg/mL (≈ 0.00691 mM) in experiment [12] (setting [19]); 2 µg/mL (≈ 0.00691 mM) in [13] (setting [18]). Besides, in [14] (setting [18]), the EC50 is 4 µg/mL (≈ 0.0138 mM).

`C/C1=C\[C@@H](C)C/C=C/[C@H]2[C@@H]3O[C@]3(C)[C@@H](C)[C@H]3[C@H](Cc4c[nH]c5ccccc45)NC(=O)[C@]32C(=O)/C=C/C(=O)[C@@H]1O` [Chaetoglobosin A, chaetoglobosin A]: the “EC50 Sublethal Toxicity BSMIR 2 days” value in [16] came out at 1 µg/mL (≈ 0.00189 mM).

For the compound `OCCOc1ccccc1` [Phenoxy-ethanol, phenoxyethanol], the EC50 in experiment [1] (setting [17]) turned out to be 1500 µg/mL (≈ 10.9 mM); in experiment [2] (setting [17]) it was 1500 µg/mL (≈ 10.9 mM); in experiment [4] (setting [18]) it was 1500 µg/mL (≈ 10.9 mM); in experiment [5] (setting [18]), 1500 µg/mL (≈ 10.9 mM); in [6] (setting [18]), 1500 µg/mL (≈ 10.9 mM); in experiment [7] (setting [18]), 700 µg/mL (≈ 5.07 mM). The 50% effective concentration (EC50) was 700 µg/mL (≈ 5.07 mM) in experiment [8] (setting [18]); 1500 µg/mL (≈ 10.9 mM) in [9] (setting [18]); 1500 µg/mL (≈ 10.9 mM) in [10] (setting [18]); 700 µg/mL (≈ 5.07 mM) in [11] (setting [18]); 1500 µg/mL (≈ 10.9 mM) in [12] (setting [19]); 1500 µg/mL (≈ 10.9 mM) in experiment [13] (setting [18]). Moreover, the EC50 in experiment [14] (setting [18]) came to 1500 µg/mL (≈ 10.9 mM).
